Results: paper PMC11861906, “Structural basis for lipid-mediated activation of G protein-coupled receptor GPR55” (Nature Communications, 2025)

Legend:
[1] = target: wt GPR55 (Gα13 mutant L374I) (Homo sapiens, UniProt Q9Y2T6); experiment: BRET² G protein dissociation assay, wt GPR55 with Gα13-L374I; type: cell-based; details: for BRET2 response, Mean (plotted, Fig. S4): GPR55-wt-G13-L374I
Experimental: (§1) Next, we used a mutagenesis approach to further explore the Gα13 selectivity of GPR55. The striking difference in the sequence between the two G protein subtypes guided the design of four Gα13 mutants that are in close contact with GPR55 by replacing the residues with the respective Gα12 amino acid (L374^-4I, Q373^-5D, H368^-10Q, R331D). The mutants were tested individually for their ability to be activated by GPR55 using the same G protein dissociation assay. […] The single Gα13-mutants affected the potency of LPI and ML184 only to a minor extend compared to wt Gα13 (Supplementary Table S3).
(§2) G protein dissociation assays were performed according to the original protocols of the TRUPATH BRET² assay[47],[87] but with subtle modifications as previously described[61],[88],[89]. All reagents and cells were obtained from Thermo Fisher Scientific unless indicated otherwise. The coding sequences for the G protein biosensors[47] (Gα12-Rluc8, Gα13-Rluc8, wt Gβ3, and Gγ9-GFP), the wt GPR55, the construct used for cryo-EM (with GFP bearing a G67A mutation to disrupt fluorescence properties[48] for BRET² assays), GPR55 binding pocket mutants (G152^4.56F, G152^4.56W, N171^ECL2Q, N171^ECL2A, T176^5.33A, R253^6.62A), and the wt TBXA2R were codon-optimized for Homo sapiens, gene-synthesized, and sub-cloned into pcDNA^TM3.1(+) between NheI and HindIII restriction sites by GeneArt (Thermo Fisher Scientific). […] Freshly grown cells were washed with Dulbecco’s Balanced Salt Solution (DPBS, cat. #14200075) and detached using trypsin-ethylenediaminetetraacetic acid (trypsin-EDTA) (cat. #25300-062). Then, the cells were reconstituted to 500,000 cells per mL with fresh medium, and 1,000,000 cells were seeded into each well of a 6-well plate. After 3 h incubation at 37 °C and 5% CO2, adherent cells were transfected with 600 ng DNA (1:1:1:1 ratio of plasmid DNA for GPR55, wt Gβ3, Gγ9-GFP, and Gα12-Rluc8 or Gα13-Rluc8). Plasmid DNA was mixed with 1.5 µL Lipofectamine^TM 2000 (cat. #11668027) in Opti-MEM^TM medium (cat. #31985062) and incubated for 20 min. Then, the mixture was added to each well of the 6-well plate following 24 h incubation at 37 °C and 5% CO2. Transfected cells were washed with DPBS, detached using EDTA (Versene, cat. #15040066), and reconstituted into fresh medium at 500,000 cells mL^−1. From this suspension, 50,000 cells were seeded into each well of a white-bottom 96-well plate (Nunc^TM MicroWell^TM 96 wells, cat. #136101) following overnight incubation at 37 °C and 5% CO2. Then, the adherent cells were washed with assay medium [Hank’s balanced salt solution (HBSS, cat. #14065056) plus 20 mM HEPES pH 7.4 (cat. #15630056)] and finally reconstituted into 50 µL of the same medium. […] Methoxy e-Coelenterazine was used as luciferase substrate (Prolume Purple, NanoLight Technology, cat. #369), reconstituted at 1 mM in methanol and diluted to 37.5 µM with assay buffer (7.5 µM final assay concentration). The assay was started by the addition of 20 µL luciferase substrate to each well of the assay plate using a Multidrop^TM Combi reagent dispenser (Thermo Fisher Scientific), followed by 5 min incubation at room temperature. Then, 30 µL of agonist dilutions or DMSO control was added (final DMSO concentration 1.5%), followed by an additional 5 min incubation at room temperature. BRET² measurements were performed with a PHERAstar® FSX microplate reader (BMG LABTECH) using a BRET² filter (donor emission 370–450 nm, acceptor emission 500–530 nm) at the maximum fluorescence gain of 3600. BRET² ratios were calculated by dividing GFP emission signals from Rluc8 emission counts.

[2] = target: wt GPR55 (Gα13 mutant Q373D) (Homo sapiens, UniProt Q9Y2T6); experiment: BRET² G protein dissociation assay, wt GPR55 with Gα13-Q373D; type: cell-based; details: for BRET2 response, Mean (plotted, Fig. S4): GPR55-wt-G13-Q373D
wt GPR55 (Gα13 mutant Q373D), sequence (Q9Y2T6 whole entry, stated change not applied): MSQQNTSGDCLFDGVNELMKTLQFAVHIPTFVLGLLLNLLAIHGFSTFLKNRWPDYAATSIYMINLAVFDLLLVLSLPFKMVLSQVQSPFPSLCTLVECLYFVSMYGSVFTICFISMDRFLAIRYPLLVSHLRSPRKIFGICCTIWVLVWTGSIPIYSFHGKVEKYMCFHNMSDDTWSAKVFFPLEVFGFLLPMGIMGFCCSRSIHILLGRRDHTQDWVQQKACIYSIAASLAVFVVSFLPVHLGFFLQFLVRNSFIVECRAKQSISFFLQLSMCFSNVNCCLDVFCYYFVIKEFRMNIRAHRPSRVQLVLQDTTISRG
wt GPR55 (Gα13 mutant Q373D), sequence (Q14344 with tags, fused parts or gaps Q373D partner): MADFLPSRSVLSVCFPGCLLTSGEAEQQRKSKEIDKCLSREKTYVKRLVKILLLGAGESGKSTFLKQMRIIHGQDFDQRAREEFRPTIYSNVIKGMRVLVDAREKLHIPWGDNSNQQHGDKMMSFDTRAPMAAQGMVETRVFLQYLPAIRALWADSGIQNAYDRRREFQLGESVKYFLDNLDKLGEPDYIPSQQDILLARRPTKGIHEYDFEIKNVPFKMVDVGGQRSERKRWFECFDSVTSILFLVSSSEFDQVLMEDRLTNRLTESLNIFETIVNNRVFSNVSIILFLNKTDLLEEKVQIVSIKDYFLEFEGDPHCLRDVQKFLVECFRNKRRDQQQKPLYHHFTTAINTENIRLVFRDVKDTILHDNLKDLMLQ
wt GPR55 (Gα13 mutant Q373D), sequence (P16520 whole entry partner): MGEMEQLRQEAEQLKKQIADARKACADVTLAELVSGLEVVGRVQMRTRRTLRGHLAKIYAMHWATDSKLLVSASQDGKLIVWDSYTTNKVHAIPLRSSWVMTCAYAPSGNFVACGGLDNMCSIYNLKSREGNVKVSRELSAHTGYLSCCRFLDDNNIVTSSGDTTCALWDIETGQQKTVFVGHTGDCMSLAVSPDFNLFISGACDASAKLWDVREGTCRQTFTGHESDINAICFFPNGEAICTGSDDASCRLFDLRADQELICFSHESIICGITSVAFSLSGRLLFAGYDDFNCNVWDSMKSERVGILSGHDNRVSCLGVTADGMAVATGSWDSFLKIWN
wt GPR55 (Gα13 mutant Q373D), sequence (O14610 1-66 partner limits assumed): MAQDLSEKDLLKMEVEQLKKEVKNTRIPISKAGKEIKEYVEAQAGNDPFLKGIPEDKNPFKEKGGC
Experimental: as §1, §2

[3] = target: wt GPR55 (Gα13 mutant H368Q) (Homo sapiens, UniProt Q9Y2T6); experiment: BRET² G protein dissociation assay, wt GPR55 with Gα13-H368Q; type: cell-based; details: for BRET2 response, Mean (plotted, Fig. S4): GPR55-wt-G13-H368Q
wt GPR55 (Gα13 mutant H368Q), sequence (Q9Y2T6 whole entry, stated change not applied): as the sequence (Q9Y2T6 whole entry, stated change not applied) above
wt GPR55 (Gα13 mutant H368Q), sequence (Q14344 with tags, fused parts or gaps H368Q partner): as the sequence (Q14344 with tags, fused parts or gaps Q373D partner) above, with H368Q, D373Q counted along it
wt GPR55 (Gα13 mutant H368Q), sequence (P16520 whole entry partner): as the sequence (P16520 whole entry partner) above
wt GPR55 (Gα13 mutant H368Q), sequence (O14610 1-66 partner limits assumed): as the sequence (O14610 1-66 partner limits assumed) above
Experimental: as §1, §2

[4] = target: wt GPR55 (Gα13 mutant R331D) (Homo sapiens, UniProt Q9Y2T6); experiment: BRET² G protein dissociation assay, wt GPR55 with Gα13-R331D; type: cell-based; details: for BRET2 response, Mean (plotted, Fig. S4): GPR55-wt-G13-R331D
wt GPR55 (Gα13 mutant R331D), sequence (Q9Y2T6 whole entry, stated change not applied): as the sequence (Q9Y2T6 whole entry, stated change not applied) above
wt GPR55 (Gα13 mutant R331D), sequence (Q14344 whole entry R331D partner): as the sequence (Q14344 with tags, fused parts or gaps Q373D partner) above, with R331D, D373Q counted along it
wt GPR55 (Gα13 mutant R331D), sequence (P16520 whole entry partner): as the sequence (P16520 whole entry partner) above
wt GPR55 (Gα13 mutant R331D), sequence (O14610 1-66 partner limits assumed): as the sequence (O14610 1-66 partner limits assumed) above
Experimental: as §1, §2

GPR55 = system: GPR55; design: method as in PMID 21534610; details: β-arrestin recruitment assays; read-out: reported potency; cited from earlier work

wt GPR55 (Gα13 mutant L374I), sequence (Q9Y2T6 whole entry, stated change not applied): as the sequence (Q9Y2T6 whole entry, stated change not applied) above
wt GPR55 (Gα13 mutant L374I), sequence (Q14344 with tags, fused parts or gaps L374I partner): as the sequence (Q14344 with tags, fused parts or gaps Q373D partner) above, with D373Q, L374I counted along it
wt GPR55 (Gα13 mutant L374I), sequence (P16520 whole entry partner): as the sequence (P16520 whole entry partner) above
wt GPR55 (Gα13 mutant L374I), sequence (O14610 1-66 partner limits assumed): as the sequence (O14610 1-66 partner limits assumed) above

BRET2 response, Mean (plotted, Fig. S4) ([1]; concentration 300 pM): -0.00585
BRET2 response, Mean (plotted, Fig. S4) ([1]; concentration 1e-9 M): -0.001933
BRET2 response, Mean (plotted, Fig. S4) ([1]; concentration 3e-9 M): -0.00955
BRET2 response, Mean (plotted, Fig. S4) ([1]; concentration 1e-8 M): -0.02387
BRET2 response, Mean (plotted, Fig. S4) ([1]; concentration 3e-8 M): -0.04258
BRET2 response, Mean (plotted, Fig. S4) ([1]; concentration 1e-7 M): -0.06613
BRET2 response, Mean (plotted, Fig. S4) ([1]; concentration 3e-7 M): -0.07745
BRET2 response, Mean (plotted, Fig. S4) ([1]; concentration 1e-6 M): -0.0833
BRET2 response, Mean (plotted, Fig. S4) ([1]; concentration 3e-6 M): -0.08843
BRET2 response, Mean (plotted, Fig. S4) ([1]; concentration 1e-5 M): -0.09448
BRET2 response, Mean (plotted, Fig. S4) ([1]; concentration 3e-5 M): -0.09637
EC50 ([1]; wt GPR55, Gα13-L374I): 0.0363 µM
Emax at 30 µM ([1]; wt GPR55, Gα13-L374I, 30 µM ligand, same normalization, read-out: Efficacy ± SEM (%)): 84 ± 1%
BRET2 response, Mean (plotted, Fig. S4) ([2]; concentration 300 pM): -0.0016
BRET2 response, Mean (plotted, Fig. S4) ([2]; concentration 1e-9 M): -0.008467
BRET2 response, Mean (plotted, Fig. S4) ([2]; concentration 3e-9 M): -0.01797
BRET2 response, Mean (plotted, Fig. S4) ([2]; concentration 1e-8 M): -0.03595
BRET2 response, Mean (plotted, Fig. S4) ([2]; concentration 3e-8 M): -0.05377
BRET2 response, Mean (plotted, Fig. S4) ([2]; concentration 1e-7 M): -0.06678
BRET2 response, Mean (plotted, Fig. S4) ([2]; concentration 3e-7 M): -0.07328
BRET2 response, Mean (plotted, Fig. S4) ([2]; concentration 1e-6 M): -0.07808
BRET2 response, Mean (plotted, Fig. S4) ([2]; concentration 3e-6 M): -0.08238
BRET2 response, Mean (plotted, Fig. S4) ([2]; concentration 1e-5 M): -0.08622
BRET2 response, Mean (plotted, Fig. S4) ([2]; concentration 3e-5 M): -0.08798
EC50 ([2]; wt GPR55, Gα13-Q373D): 0.017 µM
Emax at 30 µM ([2]; wt GPR55, Gα13-Q373D, 30 µM ligand, same normalization, read-out: Efficacy ± SEM (%)): 94 ± 7%
BRET2 response, Mean (plotted, Fig. S4) ([3]; concentration 300 pM): -0.005683
BRET2 response, Mean (plotted, Fig. S4) ([3]; concentration 1e-9 M): -0.005417
BRET2 response, Mean (plotted, Fig. S4) ([3]; concentration 3e-9 M): -0.01235
BRET2 response, Mean (plotted, Fig. S4) ([3]; concentration 1e-8 M): -0.02205
BRET2 response, Mean (plotted, Fig. S4) ([3]; concentration 3e-8 M): -0.02877
BRET2 response, Mean (plotted, Fig. S4) ([3]; concentration 1e-7 M): -0.03593
BRET2 response, Mean (plotted, Fig. S4) ([3]; concentration 3e-7 M): -0.04192
BRET2 response, Mean (plotted, Fig. S4) ([3]; concentration 1e-6 M): -0.04487
BRET2 response, Mean (plotted, Fig. S4) ([3]; concentration 3e-6 M): -0.0483
BRET2 response, Mean (plotted, Fig. S4) ([3]; concentration 1e-5 M): -0.05252
BRET2 response, Mean (plotted, Fig. S4) ([3]; concentration 3e-5 M): -0.05477
EC50 ([3]; wt GPR55, Gα13-H368Q): 0.0295 µM
Emax at 30 µM ([3]; wt GPR55, Gα13-H368Q, 30 µM ligand, same normalization, read-out: Efficacy ± SEM (%)): 101 ± 4%
BRET2 response, Mean (plotted, Fig. S4) ([4]; concentration 300 pM): -0.00035
BRET2 response, Mean (plotted, Fig. S4) ([4]; concentration 1e-9 M): -0.0002667
BRET2 response, Mean (plotted, Fig. S4) ([4]; concentration 3e-9 M): -0.009133
BRET2 response, Mean (plotted, Fig. S4) ([4]; concentration 1e-8 M): -0.02147
BRET2 response, Mean (plotted, Fig. S4) ([4]; concentration 3e-8 M): -0.04232
BRET2 response, Mean (plotted, Fig. S4) ([4]; concentration 1e-7 M): -0.06272
BRET2 response, Mean (plotted, Fig. S4) ([4]; concentration 3e-7 M): -0.07305
BRET2 response, Mean (plotted, Fig. S4) ([4]; concentration 1e-6 M): -0.07957
BRET2 response, Mean (plotted, Fig. S4) ([4]; concentration 3e-6 M): -0.0831
BRET2 response, Mean (plotted, Fig. S4) ([4]; concentration 1e-5 M): -0.08698
BRET2 response, Mean (plotted, Fig. S4) ([4]; concentration 3e-5 M): -0.08977
EC50 ([4]; wt GPR55, Gα13-R331D): 0.0339 µM
Emax at 30 µM ([4]; wt GPR55, Gα13-R331D, 30 µM ligand, same normalization, read-out: Efficacy ± SEM (%)): 89 ± 3%
SMILES: Cc1cccc(N2CCN(C(=O)c3cc(S(=O)(=O)N(C)C)ccc3N3CCCC3)CC2)c1C [ML184, 3-[[4-(2,3-dimethylphenyl)-1-piperazinyl]carbonyl]-N,N-dimethyl-4-(1-pyrrolidinyl)benzenesulfonamide]
EC50 (GPR55): 0.26 µM
